Assay [1] has as its target T1, human adenosine A2A receptor (Homo sapiens, UniProt P29274).
T1 construct: expressed in transfected cells; host or cells: HEK293 cells infected with BacMam
Description: Inhibition binding assay, human adenosine A2A receptor membranes, [3H]ZM241385. As to conditions: 1 nM [3H]ZM241385, HEK293-hA2A membranes, 25° C., 1 h; IC50 converted to Ki with Cheng-Prusoff; read-out: A2A pKi (converted). On the procedure: (§1) Inhibition binding assays were performed using 0.2 μg of membranes prepared from HEK293 cells infected with BacMam human adenosine A2A receptor or 1.4 μg of membranes prepared from HEK293 cells infected with BacMam human adenosine A1 receptor. Membranes were incubated in 50 mM Tris-HCl (HEK293-hA2A; pH 7.4) or 50 mM Tris-HCl, 100 mM NaCl, 10 mM MgCl2 (CHO-hA1; pH 7.4) in the presence of varying concentrations of test compound and 1 nM [^3H]ZM241385 (HEK293-hA2A) or [^3H]DPCPX (CHO-hA1) at 25° C. for 1 h. The assay was then terminated by rapid filtration onto GF/B grade Unifilter plates using a TomTec cell harvester, followed by 5×0.5 ml washes with ddH2O. Nonspecific binding was defined in the presence of 1 μM CGS15943 (HEK293-hA2A) or 1 μM DPCPX (CHO-hA1). Bound radioactivity was determined by liquid scintillation counting and inhibition curves were analysed using a four-parameter logistic equation. IC50 values were converted to Ki values with the Cheng-Prusoff equation using a KD value derived from saturation binding studies.

In assay [2] the target is T2, human adenosine A1 receptor (Homo sapiens, UniProt P30542).
T2 construct: expressed in transfected cells; host or cells: HEK293 cells infected with BacMam (the same paragraph also labels the preparation CHO-hA1)
T2 sequence (P30542 1-326): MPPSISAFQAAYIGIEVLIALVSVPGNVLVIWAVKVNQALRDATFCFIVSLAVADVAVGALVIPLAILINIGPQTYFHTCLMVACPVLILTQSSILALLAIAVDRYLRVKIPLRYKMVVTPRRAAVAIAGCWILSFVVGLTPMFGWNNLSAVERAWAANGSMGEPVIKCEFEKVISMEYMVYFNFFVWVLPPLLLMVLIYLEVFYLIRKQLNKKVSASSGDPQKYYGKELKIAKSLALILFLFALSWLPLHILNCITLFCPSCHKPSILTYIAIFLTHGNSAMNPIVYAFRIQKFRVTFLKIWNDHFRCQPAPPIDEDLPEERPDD
As to the kind of experiment: Inhibition binding assay, human adenosine A1 receptor membranes, [3H]DPCPX. As to conditions: 1 nM [3H]DPCPX, 25° C., 1 h; IC50 converted to Ki with Cheng-Prusoff; read-out: A1 pKi (converted). On the procedure: as §1

Each structure is given as a SMILES string.

T1 sequence (P29274 whole entry): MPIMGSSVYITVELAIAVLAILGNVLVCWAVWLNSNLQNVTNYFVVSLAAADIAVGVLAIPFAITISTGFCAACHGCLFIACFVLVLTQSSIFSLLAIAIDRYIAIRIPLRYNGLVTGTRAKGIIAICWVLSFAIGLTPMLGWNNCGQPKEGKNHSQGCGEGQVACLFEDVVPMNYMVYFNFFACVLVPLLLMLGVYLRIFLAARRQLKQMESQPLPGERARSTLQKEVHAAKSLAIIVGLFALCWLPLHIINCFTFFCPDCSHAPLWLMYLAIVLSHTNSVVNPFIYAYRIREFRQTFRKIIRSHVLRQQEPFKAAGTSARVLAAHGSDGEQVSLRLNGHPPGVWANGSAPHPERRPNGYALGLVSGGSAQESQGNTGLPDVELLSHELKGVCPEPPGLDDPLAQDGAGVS

Regarding `CCC(c1ccc(F)cn1)n1nc2c(-c3cc(C)nc(C)c3)c(-c3ccccc3)nc(N)n2c1=O` (racemic) [Example 1-38, 5-amino-8-(2,6-dimethyl-4-pyridyl)-2-[1-(5-fluoro-2-pyridyl)propyl]-7-phenyl-[1,2,4]triazolo[4,3-c]pyrimidin-3-one], the Ki is 100 nM in assay [1] and 1000 nM in assay [2].

For `Cc1cc(-c2c(-c3ccccc3)nc(N)n3c(=O)n(Cc4ccc(C#N)cn4)nc23)cc(CO)n1` [Example 1-54, 6-[[5-amino-8-[2-(hydroxymethyl)-6-methyl-4-pyridyl]-3-oxo-7-phenyl-[1,2,4]triazolo[4,3-c]pyrimidin-2-yl]methyl]pyridine-3-carbonitrile], the Ki in assay [1] was 158 nM.

As to `Cc1cc(-c2c(-c3ccc(F)cc3)nc(N)n3c(=O)n(Cc4ccc(F)cn4)nc23)cc(CO)n1` [Example 1-59, 5-amino-7-(4-fluorophenyl)-2-[(5-fluoro-2-pyridyl)methyl]-8-[2-(hydroxymethyl)-6-methyl-4-pyridyl]-[1,2,4]triazolo[4,3-c]pyrimidin-3-one], the Ki in assay [1] is 1.58 nM.

Take `COc1cc(-c2c(-c3ccc(F)cc3)nc(N)n3c(=O)n(Cc4ccc(C)cn4)nc23)cc(CO)n1` [Example 1-67, 5-amino-7-(4-fluorophenyl)-8-[2-(hydroxymethyl)-6-methoxy-4-pyridyl]-2-[(5-methyl-2-pyridyl)methyl]-[1,2,4]triazolo[4,3-c]pyrimidin-3-one]: the Ki in assay [1] is 0.794 nM.

In the case of `Cc1cc(-c2c(-c3ccccc3)nc(N)n3c(=O)n(CCN(C)C4(CO)CCc5ccccc5C4)nc23)cc(C)n1` (stereo not shown) [Example 1-99, 5-amino-8-(2,6-dimethyl-4-pyridyl)-2-[2-[[2-(hydroxymethyl)tetralin-2-yl]-methyl-amino]ethyl]-7-phenyl-[1,2,4]triazolo[4,3-c]pyrimidin-3-one], the Ki in assay [1] is 39.8 nM.

As for `Cc1cc(-c2c(-c3ccccc3)nc(N)n3c(=O)n(C(C)C)nc23)cc(C)n1` [Example 2-4, 5-amino-8-(2,6-dimethyl-4-pyridyl)-2-isopropyl-7-phenyl-[1,2,4]triazolo[4,3-c]pyrimidin-3-one], in assay [1], the Ki is 50.1 nM.

On to `CCNC(=O)OCCn1nc2c(-c3cc(C)nc(C)c3)c(-c3ccccc3)nc(N)n2c1=O` [Example 2-16, 2-[5-amino-8-(2,6-dimethyl-4-pyridyl)-3-oxo-7-phenyl-[1,2,4]triazolo[4,3-c]pyrimidin-2-yl]ethyl N-ethylcarbamate], for which the Ki in assay [1] is 20 nM.

As to `Cc1cc(-c2c(-c3ccccc3)nc(N)n3c(=O)n(CCC(N)=O)nc23)cc(C)n1` [Example 2-31, 3-[5-amino-8-(2,6-dimethyl-4-pyridyl)-3-oxo-7-phenyl-[1,2,4]triazolo[4,3-c]pyrimidin-2-yl]propanamide], the Ki in assay [1] was 25.1 nM.

`Cc1cnn(-c2nc(N)n3c(=O)n(CCC(F)(F)F)nc3c2-c2cc(C)nc(C)c2)c1` [Example 2-41, 5-amino-8-(2,6-dimethyl-4-pyridyl)-7-(4-methylpyrazol-1-yl)-2-(3,3,3-trifluoropropyl)-[1,2,4]triazolo[4,3-c]pyrimidin-3-one]: the Ki in assay [1] was 31.6 nM.

As to `Cc1cc(-c2c(-c3ccco3)nc(N)n3c(=O)n(CCC(F)(F)F)nc23)cc(C)n1` [Example 2-42, 5-amino-8-(2,6-dimethyl-4-pyridyl)-7-(2-furyl)-2-(3,3,3-trifluoropropyl)-[1,2,4]triazolo[4,3-c]pyrimidin-3-one], the Ki in assay [1] is 1 nM.

For the compound `Cc1cc(-c2c(-c3ccccc3)nc(N)n3c(=O)n(C[C@@H]4CNCCO4)nc23)cc(C)n1` [Example 2-71, (S)-5-amino-8-(2,6-dimethylpyridin-4-yl)-2-(morpholin-2-ylmethyl)-7-phenyl-[1,2,4]triazolo[4,3-c]pyrimidin-3(2H)-one], the Ki in assay [1] is 31.6 nM.

For `Cc1cc(-c2c(-c3ccccc3)nc(N)n3c(=O)n(C[C@H]4CN(C)CCO4)nc23)cc(C)n1` [Example 2-74, 5-amino-8-(2,6-dimethyl-4-pyridyl)-2-[[(2R)-4-methylmorpholin-2-yl]methyl]-7-phenyl-[1,2,4]triazolo[4,3-c]pyrimidin-3-one], in assay [1], the Ki is 15.8 nM.

Turning to `Cc1cc(-c2c(-c3ccccc3)nc(N)n3c(=O)n(C[C@H]4COCCN4C(=O)OC(C)(C)C)nc23)cc(C)n1` [Example 2-75, tert-butyl (3S)-3-[[5-amino-8-(2,6-dimethyl-4-pyridyl)-3-oxo-7-phenyl-[1,2,4]triazolo[4,3-c]pyrimidin-2-yl]methyl]morpholine-4-carboxylate], in assay [1], the Ki is 100 nM.

For `Cc1cc(-c2c(-c3ccccc3)nc(N)n3c(=O)n(C[C@H]4CN(C)CCN4C)nc23)cc(C)n1` [Example 2-85, (R)-5-amino-2-((1,4-dimethylpiperazin-2-yl)methyl)-8-(2,6-dimethylpyridin-4-yl)-7-phenyl-[1,2,4]triazolo[4,3-c]pyrimidin-3(2H)-one], in assay [1], the Ki is 7.94 nM.

On to `Cc1cc(-c2c(-c3ccccc3)nc(N)n3c(=O)n(C[C@H]4CNCCN4C)nc23)cc(C)n1` [Example 2-86, 5-amino-8-(2,6-dimethyl-4-pyridyl)-2-[[(2R)-1-methylpiperazin-2-yl]methyl]-7-phenyl-[1,2,4]triazolo[4,3-c]pyrimidin-3-one], for which the Ki in assay [1] was 25.1 nM.

For `Cc1cc(-c2c(-c3ccccc3)nc(N)n3c(=O)n(C[C@@H]4CN(C)CCN4C)nc23)cc(C)n1` [Example 2-87, (S)-5-amino-2-((1,4-dimethylpiperazin-2-yl)methyl)-8-(2,6-dimethylpyridin-4-yl)-7-phenyl-[1,2,4]triazolo[4,3-c]pyrimidin-3(2H)-one], the Ki in assay [1] is 100 nM.

As to `Cc1cc(-c2c(-c3ccccc3)nc(N)n3c(=O)n(C[C@@H]4CNCCN4C)nc23)cc(C)n1` [Example 2-88, 5-amino-8-(2,6-dimethyl-4-pyridyl)-2-[[(2S)-1-methylpiperazin-2-yl]methyl]-7-phenyl-[1,2,4]triazolo[4,3-c]pyrimidin-3-one], the Ki in assay [1] is 79.4 nM.

As for `Cc1cc(-c2c(-c3ccc(F)cc3)nc(N)n3c(=O)n(CC4CCCN=N4)nc23)cc(CO)n1` (stereo not shown) [Example 2-93, 5-amino-7-(4-fluorophenyl)-8-[2-(hydroxymethyl)-6-methyl-4-pyridyl]-2-(3,4,5,6-tetrahydropyridazin-3-ylmethyl)-[1,2,4]triazolo[4,3-c]pyrimidin-3-one], the Ki in assay [1] was 31.6 nM.

With `Cc1cc(-c2c(-c3ccccc3)nc(N)n3c(=O)n(CCN4CCC5CC54)nc23)cc(C)n1` (stereo not shown) [Example 2-95, 2-(2-(2-azabicyclo[3.1.0]hexan-2-yl)ethyl)-5-amino-8-(2,6-dimethylpyridin-4-yl)-7-phenyl-[1,2,4]triazolo[4,3-c]pyrimidin-3(2H)-one], the Ki in assay [1] is 6.31 nM.

On to `Cc1cc(-c2c(-c3ccccc3)nc(N)n3c(=O)n(CCN4CCCCC4)nc23)cc(C)n1` [Example 2-96, 5-amino-8-(2,6-dimethyl-4-pyridyl)-7-phenyl-2-[2-(1-piperidyl)ethyl]-[1,2,4]triazolo[4,3-c]pyrimidin-3-one], for which, in assay [1], the Ki was 15.8 nM.

For `Cc1cc(-c2c(-c3ccccc3)nc(N)n3c(=O)n(CCN4CCCC(C)C4)nc23)cc(C)n1` (stereo not shown) [Example 2-98, 5-amino-8-(2,6-dimethyl-4-pyridyl)-2-[2-(3-methyl-1-piperidyl)ethyl]-7-phenyl-[1,2,4]triazolo[4,3-c]pyrimidin-3-one], the Ki in assay [1] is 20 nM.

Turning to `COC(=O)N1CCCC(NCCn2nc3c(-c4cc(C)nc(C)c4)c(-c4ccccc4)nc(N)n3c2=O)C1` (stereo not shown) [Example 2-106, methyl 3-[2-[5-amino-8-(2,6-dimethyl-4-pyridyl)-3-oxo-7-phenyl-[1,2,4]triazolo[4,3-c]pyrimidin-2-yl]ethylamino]piperidine-1-carboxylate], in assay [1], the Ki was 100 nM.

As for `Cc1cc(-c2c(-c3ccccc3)nc(N)n3c(=O)n(CCC4CCN(CCC(=O)O)CC4)nc23)cc(C)n1` [Example 2-110, 3-[4-[2-[5-amino-8-(2,6-dimethyl-4-pyridyl)-3-oxo-7-phenyl-[1,2,4]triazolo[4,3-c]pyrimidin-2-yl]ethyl]-1-piperidyl]propanoic acid], the Ki in assay [1] is 126 nM.

For the compound `CNC(=O)CCn1nc2c(-c3cc(C)nc(C)c3)c(-c3ccccc3)nc(N)n2c1=O` [Example 2-113, 3-(5-amino-8-(2,6-dimethylpyridin-4-yl)-3-oxo-7-phenyl-[1,2,4]triazolo[4,3-c]pyrimidin-2(3H)-yl)-N-methylpropanamide], the Ki in assay [1] was 25.1 nM.

Values taken from patent US12528815B2, “5-amino-8-(4-pyridyl)-[1,2,4]triazolo[4,3-c]pyrimidin-3-one compounds for use against cancer” (Nxera Pharma UK Limited, priority 2020, dated 2026).
